Results as given in ChEMBL document CHEMBL3885881, “DrugMatrix”.

Species: Rattus norvegicus
Experiment: DrugMatrix - Regimen: Daily Repeat
Assay type: toxicity, organism-based, Sprague-Dawley
Parameters: regimen Daily Repeat, gender Male, age 6-8 weeks
Details: in vivo, po, route oral GAVAGE, […]; for ABSOLUTE BASOPHIL / ABSOLUTE EOSINOPHIL / ABSOLUTE LYMPHOCYTE / ABSOLUTE MONOCYTE / ABSOLUTE SEGMENTED NEUTROPHIL / BASOPHIL / EOSINOPHIL / ERYTHROCYTE COUNT / HEMATOCRIT / HEMOGLOBIN / LEUKOCYTE COUNT / LYMPHOCYTE / MEAN CORPUSCULAR HEMOGLOBIN / MEAN CORPUSCULAR HEMOGLOBIN CONCENTRATION / MEAN CORPUSCULAR VOLUME / MONOCYTE / NEUTROPHIL / NUCLEATED RED BLOOD CELLS / PLATELET COUNT: tissue Blood; for ALANINE AMINOTRANSFERASE / ALBUMIN / ALKALINE PHOSPHATASE / ASPARTATE AMINOTRANSFERASE / BLOOD UREA NITROGEN / CARBON DIOXIDE / CHLORIDE / CHOLESTEROL / CREATINE PHOSPHOKINASE / CREATININE / GLUCOSE / LACTATE DEHYDROGENASE / LIPASE / PHOSPHORUS / POTASSIUM / SODIUM / TOTAL BILIRUBIN / TOTAL PROTEIN / URIC ACID: tissue Plasma
[1] = 25 mg/kg, 72 h, dose level Low, time 3 day
[2] = 25 mg/kg, 120 h, dose level Low, time 5 day
[3] = 100 mg/kg, 72 h, dose level High, time 3 day
[4] = 100 mg/kg, 120 h, dose level High, time 5 day

CN(C)CCCN1c2ccccc2Sc2ccccc21 [PROMAZINE]
ABSOLUTE BASOPHIL [1]: 0 CELLS/uL | ABSOLUTE EOSINOPHIL [1]: 145.33 CELLS/uL | ABSOLUTE LYMPHOCYTE [1]: 11142.33 CELLS/uL | ABSOLUTE MONOCYTE [1]: 92 CELLS/uL | ABSOLUTE SEGMENTED NEUTROPHIL [1]: 1153.67 CELLS/uL | BASOPHIL [1]: 0% | EOSINOPHIL [1]: 0.67% | ERYTHROCYTE COUNT [1]: 5.31 x10E6/uL | HEMATOCRIT [1]: 33.93% | HEMOGLOBIN [1]: 13.5 G/DL | LEUKOCYTE COUNT [1]: 12.53 x10E3/uL | LYMPHOCYTE [1]: 87.67% | MEAN CORPUSCULAR HEMOGLOBIN [1]: 25.47 pg | MEAN CORPUSCULAR HEMOGLOBIN CONCENTRATION [1]: 39.77 G/DL | MEAN CORPUSCULAR VOLUME [1]: 63.93 fL | MONOCYTE [1]: 1.33% | NEUTROPHIL [1]: 10.33% | NUCLEATED RED BLOOD CELLS [1]: 0.67 /100WBC | PLATELET COUNT [1]: 1124.33 x10E3/uL | ALANINE AMINOTRANSFERASE [1]: 95 u/L | ALBUMIN [1]: 4.03 G/DL | ALKALINE PHOSPHATASE [1]: 542.33 u/L | ASPARTATE AMINOTRANSFERASE [1]: 104 u/L | BLOOD UREA NITROGEN [1]: 14 mg/dL | CARBON DIOXIDE [1]: 32 mmol/L | CHLORIDE [1]: 101.67 MEQ/L | CHOLESTEROL [1]: 76.67 mg/dL | CREATINE PHOSPHOKINASE [1]: 359.33 u/L | CREATININE [1]: 0.17 mg/dL | GLUCOSE [1]: 185.67 mg/dL | LACTATE DEHYDROGENASE [1]: 147.67 u/L | LIPASE [1]: 9.33 u/L | PHOSPHORUS [1]: 12.17 mg/dL | POTASSIUM [1]: 6.17 MEQ/L | SODIUM [1]: 143.27 MEQ/L | TOTAL BILIRUBIN [1]: 0.17 mg/dL | TOTAL PROTEIN [1]: 5.57 G/DL | URIC ACID [1]: 1.23 mg/dL | ABSOLUTE BASOPHIL [2]: 0 CELLS/uL | ABSOLUTE EOSINOPHIL [2]: 84.33 CELLS/uL | ABSOLUTE LYMPHOCYTE [2]: 7389.33 CELLS/uL | ABSOLUTE MONOCYTE [2]: 65.33 CELLS/uL | ABSOLUTE SEGMENTED NEUTROPHIL [2]: 894.33 CELLS/uL | BASOPHIL [2]: 0% | EOSINOPHIL [2]: 1% | ERYTHROCYTE COUNT [2]: 5.37 x10E6/uL | HEMATOCRIT [2]: 34.2% | HEMOGLOBIN [2]: 13.47 G/DL | LEUKOCYTE COUNT [2]: 8.43 x10E3/uL | LYMPHOCYTE [2]: 88.67% | MEAN CORPUSCULAR HEMOGLOBIN [2]: 25.1 pg | MEAN CORPUSCULAR HEMOGLOBIN CONCENTRATION [2]: 39.4 G/DL | MEAN CORPUSCULAR VOLUME [2]: 63.67 fL | MONOCYTE [2]: 0.67% | NEUTROPHIL [2]: 9.67% | NUCLEATED RED BLOOD CELLS [2]: 0.33 /100WBC | PLATELET COUNT [2]: 1228.67 x10E3/uL | ALANINE AMINOTRANSFERASE [2]: 54.33 u/L | ALBUMIN [2]: 4.17 G/DL | ALKALINE PHOSPHATASE [2]: 463.67 u/L | ASPARTATE AMINOTRANSFERASE [2]: 73.33 u/L | BLOOD UREA NITROGEN [2]: 15 mg/dL | CARBON DIOXIDE [2]: 28.33 mmol/L | CHLORIDE [2]: 103.33 MEQ/L | CHOLESTEROL [2]: 61.67 mg/dL | CREATINE PHOSPHOKINASE [2]: 324.67 u/L | CREATININE [2]: 0.27 mg/dL | GLUCOSE [2]: 188.67 mg/dL | LACTATE DEHYDROGENASE [2]: 154 u/L | LIPASE [2]: 10.33 u/L | PHOSPHORUS [2]: 12.03 mg/dL | POTASSIUM [2]: 5.86 MEQ/L | SODIUM [2]: 145.6 MEQ/L | TOTAL BILIRUBIN [2]: 0.23 mg/dL | TOTAL PROTEIN [2]: 5.97 G/DL | URIC ACID [2]: 1.8 mg/dL | ABSOLUTE BASOPHIL [3]: 0 CELLS/uL | ABSOLUTE EOSINOPHIL [3]: 0 CELLS/uL | ABSOLUTE LYMPHOCYTE [3]: 15637.67 CELLS/uL | ABSOLUTE MONOCYTE [3]: 123 CELLS/uL | ABSOLUTE SEGMENTED NEUTROPHIL [3]: 572.67 CELLS/uL | BASOPHIL [3]: 0% | EOSINOPHIL [3]: 0% | ERYTHROCYTE COUNT [3]: 6.09 x10E6/uL | HEMATOCRIT [3]: 37.23% | HEMOGLOBIN [3]: 15.1 G/DL | LEUKOCYTE COUNT [3]: 16.33 x10E3/uL | LYMPHOCYTE [3]: 96% | MEAN CORPUSCULAR HEMOGLOBIN [3]: 24.83 pg | MEAN CORPUSCULAR HEMOGLOBIN CONCENTRATION [3]: 40.57 G/DL | MEAN CORPUSCULAR VOLUME [3]: 61.17 fL | MONOCYTE [3]: 0.67% | NEUTROPHIL [3]: 3.33% | NUCLEATED RED BLOOD CELLS [3]: 0 /100WBC | PLATELET COUNT [3]: 1276.67 x10E3/uL | ALANINE AMINOTRANSFERASE [3]: 60.33 u/L | ALBUMIN [3]: 4.43 G/DL | ALKALINE PHOSPHATASE [3]: 366.67 u/L | ASPARTATE AMINOTRANSFERASE [3]: 101.33 u/L | BLOOD UREA NITROGEN [3]: 17 mg/dL | CARBON DIOXIDE [3]: 28 mmol/L | CHLORIDE [3]: 101.67 MEQ/L | CHOLESTEROL [3]: 88 mg/dL | CREATINE PHOSPHOKINASE [3]: 986.67 u/L | CREATININE [3]: 0.37 mg/dL | GLUCOSE [3]: 131.67 mg/dL | LACTATE DEHYDROGENASE [3]: 335 u/L | LIPASE [3]: 12.67 u/L | PHOSPHORUS [3]: 11.5 mg/dL | POTASSIUM [3]: 6.17 MEQ/L | SODIUM [3]: 143.73 MEQ/L | TOTAL BILIRUBIN [3]: 0.23 mg/dL | TOTAL PROTEIN [3]: 6.1 G/DL | URIC ACID [3]: 1.2 mg/dL | ABSOLUTE BASOPHIL [4]: 0 CELLS/uL | ABSOLUTE EOSINOPHIL [4]: 74.67 CELLS/uL | ABSOLUTE LYMPHOCYTE [4]: 9603.33 CELLS/uL | ABSOLUTE MONOCYTE [4]: 53.33 CELLS/uL | ABSOLUTE SEGMENTED NEUTROPHIL [4]: 302 CELLS/uL | BASOPHIL [4]: 0% | EOSINOPHIL [4]: 0.67% | ERYTHROCYTE COUNT [4]: 5.25 x10E6/uL | HEMATOCRIT [4]: 32.53% | HEMOGLOBIN [4]: 13.13 G/DL | LEUKOCYTE COUNT [4]: 10.03 x10E3/uL | LYMPHOCYTE [4]: 95.67% | MEAN CORPUSCULAR HEMOGLOBIN [4]: 24.97 pg | MEAN CORPUSCULAR HEMOGLOBIN CONCENTRATION [4]: 40.37 G/DL | MEAN CORPUSCULAR VOLUME [4]: 61.93 fL | MONOCYTE [4]: 0.67% | NEUTROPHIL [4]: 3% | NUCLEATED RED BLOOD CELLS [4]: 0 /100WBC | PLATELET COUNT [4]: 1046.33 x10E3/uL | ALANINE AMINOTRANSFERASE [4]: 59.33 u/L | ALBUMIN [4]: 4.03 G/DL | ALKALINE PHOSPHATASE [4]: 341.67 u/L | ASPARTATE AMINOTRANSFERASE [4]: 113 u/L | BLOOD UREA NITROGEN [4]: 19 mg/dL | CARBON DIOXIDE [4]: 25.67 mmol/L | CHLORIDE [4]: 105 MEQ/L | CHOLESTEROL [4]: 57 mg/dL | CREATINE PHOSPHOKINASE [4]: 469 u/L | CREATININE [4]: 0.22 mg/dL | GLUCOSE [4]: 246.33 mg/dL | LACTATE DEHYDROGENASE [4]: 616 u/L | LIPASE [4]: 10.33 u/L | PHOSPHORUS [4]: 12.93 mg/dL | POTASSIUM [4]: 5.03 MEQ/L | SODIUM [4]: 147.63 MEQ/L | TOTAL BILIRUBIN [4]: 0.2 mg/dL | TOTAL PROTEIN [4]: 5.5 G/DL | URIC ACID [4]: 2.07 mg/dL
